# Data: the kinase profiling compilation of Christmann-Franck et al. (2016)
# Several values for one entry are separate records, joined by “and”; a condition that tells them apart may be missing. Equal values may be shown once.
# How the values were obtained:
# Experiment in all cases: radiometric filter-binding kinase assay, Kinaseprofiler
# [1] = biological target: AURKB (human) (UniProt Q96GD4); settings: ATP 10 µM
# [2] = biological target: PRKG1 (human) (UniProt Q13976); settings: ATP 90 µM
# [3] = biological target: MAPK8 (human) (UniProt P45983); settings: ATP 45 µM
# [4] = biological target: NEK2 (human) (UniProt P51955); settings: ATP 120 µM
# [5] = biological target: PRKCQ (human) (UniProt Q04759); settings: ATP 15 µM
# [6] = biological target: PRKD2 (human) (UniProt Q9BZL6); settings: ATP 155 µM
# [7] = biological target: DAPK3 (human) (UniProt O43293); settings: ATP 15 µM
# [8] = biological target: PRKCD (human) (UniProt Q05655); settings: ATP 15 µM
# [9] = biological target: GRK7 (human) (UniProt Q8WTQ7); settings: ATP 15 µM
# [10] = biological target: CSK (human) (UniProt P41240); settings: ATP 15 µM
# [11] = biological target: TSSK1B (human) (UniProt Q9BXA7); settings: ATP 15 µM
# [12] = biological target: NUAK1 (human) (UniProt O60285); settings: ATP 45 µM
# [13] = biological target: JAK3 JH1 catalytic (human) (UniProt P52333); settings: ATP 10 µM
# [14] = biological target: ACVR1B (human) (UniProt P36896); settings: ATP 10 µM
# [15] = biological target: CDK2 CCNE1 (human) (UniProt P24941+P24864); settings: ATP 120 µM
# [16] = biological target: RPS6KA5 KD1 KD2 (human) (UniProt O75582); settings: ATP 90 µM
# [17] = biological target: MST1R (human) (UniProt Q04912); settings: ATP 70 µM
# [18] = biological target: WNK3 (human) (UniProt Q9BYP7); settings: ATP 200 µM
# [19] = biological target: PRKCA (human) (UniProt P17252); settings: ATP 45 µM
# [20] = biological target: PIM3 (human) (UniProt Q86V86); settings: ATP 155 µM
# [21] = biological target: CLK3 (human) (UniProt P49761); settings: ATP 90 µM
# [22] = biological target: CLK2 (human) (UniProt P49760); settings: ATP 15 µM
# [23] = biological target: DCLK2 (human) (UniProt Q8N568); settings: ATP 90 µM
# [24] = biological target: NEK3 (human) (UniProt P51956); settings: ATP 120 µM
# [25] = biological target: NEK11 (human) (UniProt Q8NG66); settings: ATP 200 µM
# [26] = biological target: INSRR (human) (UniProt P14616); settings: ATP 200 µM
# [27] = biological target: MYLK (human) (UniProt Q15746); settings: ATP 70 µM
# [28] = biological target: CDK5 CDK5R1 p25 (human) (UniProt Q00535+Q15078); settings: ATP 15 µM
# [29] = biological target: CSNK2A2 (human) (UniProt P19784); settings: ATP 10 µM
# [30] = biological target: STK17A (human) (UniProt Q9UEE5); settings: ATP 10 µM
# [31] = biological target: FGFR3 (human) (UniProt P22607); settings: ATP 15 µM
# [32] = biological target: TSSK2 (human) (UniProt Q96PF2); settings: ATP 15 µM
# [33] = biological target: VRK2 (human) (UniProt Q86Y07); settings: ATP 70 µM
# PRKG1 (human), sequence (Q13976 whole entry, looked up): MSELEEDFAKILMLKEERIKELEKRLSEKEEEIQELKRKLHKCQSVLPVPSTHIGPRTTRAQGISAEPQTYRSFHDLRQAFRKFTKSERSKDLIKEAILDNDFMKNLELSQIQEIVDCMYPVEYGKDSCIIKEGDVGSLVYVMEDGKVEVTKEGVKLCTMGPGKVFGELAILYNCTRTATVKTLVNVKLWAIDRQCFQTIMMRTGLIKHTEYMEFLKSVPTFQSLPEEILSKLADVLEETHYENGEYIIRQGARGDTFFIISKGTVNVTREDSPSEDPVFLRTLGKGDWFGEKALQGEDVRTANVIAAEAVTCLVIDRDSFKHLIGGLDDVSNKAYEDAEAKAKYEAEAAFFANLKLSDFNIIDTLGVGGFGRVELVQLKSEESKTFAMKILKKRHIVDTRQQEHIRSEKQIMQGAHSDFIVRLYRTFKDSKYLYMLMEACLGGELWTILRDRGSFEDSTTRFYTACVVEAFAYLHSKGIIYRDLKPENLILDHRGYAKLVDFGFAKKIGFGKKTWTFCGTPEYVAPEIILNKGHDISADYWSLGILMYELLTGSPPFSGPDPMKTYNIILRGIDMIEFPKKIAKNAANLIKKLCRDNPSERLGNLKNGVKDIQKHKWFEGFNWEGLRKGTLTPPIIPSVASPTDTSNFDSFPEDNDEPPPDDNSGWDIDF
# MST1R (human), sequence (Q04912 whole entry, looked up): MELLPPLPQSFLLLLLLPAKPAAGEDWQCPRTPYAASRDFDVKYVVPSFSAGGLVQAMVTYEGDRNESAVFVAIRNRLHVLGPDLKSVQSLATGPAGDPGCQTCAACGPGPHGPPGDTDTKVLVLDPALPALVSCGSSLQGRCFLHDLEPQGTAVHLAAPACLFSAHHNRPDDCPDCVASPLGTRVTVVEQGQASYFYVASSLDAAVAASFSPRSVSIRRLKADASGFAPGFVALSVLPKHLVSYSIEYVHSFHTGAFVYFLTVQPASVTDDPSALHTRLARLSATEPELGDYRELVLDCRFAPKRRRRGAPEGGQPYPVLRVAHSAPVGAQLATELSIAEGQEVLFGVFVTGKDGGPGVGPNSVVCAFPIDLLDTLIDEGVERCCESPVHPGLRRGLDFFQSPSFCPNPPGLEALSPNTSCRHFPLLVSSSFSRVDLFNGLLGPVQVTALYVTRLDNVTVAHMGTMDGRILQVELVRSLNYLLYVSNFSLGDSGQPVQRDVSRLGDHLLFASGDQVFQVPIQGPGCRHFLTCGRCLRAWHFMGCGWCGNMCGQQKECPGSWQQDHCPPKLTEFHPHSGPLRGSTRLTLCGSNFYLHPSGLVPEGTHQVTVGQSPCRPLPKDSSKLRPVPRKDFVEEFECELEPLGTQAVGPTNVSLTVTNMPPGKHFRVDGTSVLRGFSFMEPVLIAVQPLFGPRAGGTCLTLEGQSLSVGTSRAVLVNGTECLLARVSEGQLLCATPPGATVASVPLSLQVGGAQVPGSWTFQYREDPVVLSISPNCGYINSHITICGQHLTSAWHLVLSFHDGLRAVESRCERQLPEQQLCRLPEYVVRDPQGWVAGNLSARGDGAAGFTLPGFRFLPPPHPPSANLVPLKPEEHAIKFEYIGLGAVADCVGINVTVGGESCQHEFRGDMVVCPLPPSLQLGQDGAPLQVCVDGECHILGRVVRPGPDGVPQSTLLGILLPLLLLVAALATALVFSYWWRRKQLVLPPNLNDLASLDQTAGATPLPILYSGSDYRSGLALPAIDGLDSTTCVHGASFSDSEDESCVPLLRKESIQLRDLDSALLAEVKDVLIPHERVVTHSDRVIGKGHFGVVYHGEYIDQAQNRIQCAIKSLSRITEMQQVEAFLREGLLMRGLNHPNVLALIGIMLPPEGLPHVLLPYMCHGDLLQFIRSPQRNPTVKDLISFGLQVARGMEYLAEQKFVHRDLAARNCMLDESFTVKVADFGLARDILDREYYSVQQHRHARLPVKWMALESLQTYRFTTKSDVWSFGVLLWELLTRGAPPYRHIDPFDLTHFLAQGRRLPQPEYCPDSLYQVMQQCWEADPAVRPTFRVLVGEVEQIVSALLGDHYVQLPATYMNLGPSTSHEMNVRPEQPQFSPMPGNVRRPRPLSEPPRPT
# AURKB (human), sequence (Q96GD4 whole entry, looked up): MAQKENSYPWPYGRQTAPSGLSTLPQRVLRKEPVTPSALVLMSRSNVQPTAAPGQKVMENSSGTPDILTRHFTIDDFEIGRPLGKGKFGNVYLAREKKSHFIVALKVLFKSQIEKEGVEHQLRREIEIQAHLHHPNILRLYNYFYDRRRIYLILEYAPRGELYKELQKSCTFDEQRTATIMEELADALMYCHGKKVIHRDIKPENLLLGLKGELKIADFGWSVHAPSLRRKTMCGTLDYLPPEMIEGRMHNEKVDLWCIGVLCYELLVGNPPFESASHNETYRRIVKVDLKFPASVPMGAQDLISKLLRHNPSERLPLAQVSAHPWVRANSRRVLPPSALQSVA
# CDK5 CDK5R1 p25 (human), sequence (Q00535 whole entry, looked up): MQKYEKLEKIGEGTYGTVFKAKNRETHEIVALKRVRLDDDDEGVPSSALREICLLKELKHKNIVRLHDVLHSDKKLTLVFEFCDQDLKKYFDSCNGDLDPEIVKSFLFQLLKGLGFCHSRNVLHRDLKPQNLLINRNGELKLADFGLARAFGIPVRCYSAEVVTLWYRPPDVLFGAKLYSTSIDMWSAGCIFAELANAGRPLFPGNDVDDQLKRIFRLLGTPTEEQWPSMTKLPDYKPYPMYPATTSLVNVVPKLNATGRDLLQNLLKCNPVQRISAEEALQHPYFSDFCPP
# CDK5 CDK5R1 p25 (human), sequence (Q15078 whole entry, looked up): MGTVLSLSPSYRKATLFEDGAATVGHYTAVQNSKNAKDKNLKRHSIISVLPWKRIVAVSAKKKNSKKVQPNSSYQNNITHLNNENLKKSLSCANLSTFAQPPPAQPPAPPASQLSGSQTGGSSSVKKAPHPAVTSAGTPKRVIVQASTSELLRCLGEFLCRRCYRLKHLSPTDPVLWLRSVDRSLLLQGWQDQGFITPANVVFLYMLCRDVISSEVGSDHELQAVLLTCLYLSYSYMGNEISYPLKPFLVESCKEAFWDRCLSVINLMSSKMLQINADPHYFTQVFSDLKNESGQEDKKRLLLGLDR
# PRKCQ (human), sequence (Q04759 whole entry, looked up): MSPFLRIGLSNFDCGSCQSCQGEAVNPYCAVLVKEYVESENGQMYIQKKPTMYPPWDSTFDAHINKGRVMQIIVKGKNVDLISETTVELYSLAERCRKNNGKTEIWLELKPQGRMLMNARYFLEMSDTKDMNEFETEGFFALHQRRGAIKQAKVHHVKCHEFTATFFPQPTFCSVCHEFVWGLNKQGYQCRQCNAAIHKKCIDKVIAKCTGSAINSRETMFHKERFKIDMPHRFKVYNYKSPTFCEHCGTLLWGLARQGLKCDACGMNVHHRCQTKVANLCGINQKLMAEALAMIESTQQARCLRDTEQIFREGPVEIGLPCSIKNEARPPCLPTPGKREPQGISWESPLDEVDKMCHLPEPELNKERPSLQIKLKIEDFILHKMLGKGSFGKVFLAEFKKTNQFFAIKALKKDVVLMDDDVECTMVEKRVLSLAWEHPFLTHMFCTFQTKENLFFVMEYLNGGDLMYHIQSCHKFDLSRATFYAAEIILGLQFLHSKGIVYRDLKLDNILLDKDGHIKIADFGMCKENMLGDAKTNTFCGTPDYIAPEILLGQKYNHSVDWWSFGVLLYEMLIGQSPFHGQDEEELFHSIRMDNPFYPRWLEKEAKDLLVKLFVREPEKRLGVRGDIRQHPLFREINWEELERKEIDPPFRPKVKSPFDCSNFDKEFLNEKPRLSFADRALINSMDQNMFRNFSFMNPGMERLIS
# FGFR3 (human), sequence (P22607 whole entry, looked up): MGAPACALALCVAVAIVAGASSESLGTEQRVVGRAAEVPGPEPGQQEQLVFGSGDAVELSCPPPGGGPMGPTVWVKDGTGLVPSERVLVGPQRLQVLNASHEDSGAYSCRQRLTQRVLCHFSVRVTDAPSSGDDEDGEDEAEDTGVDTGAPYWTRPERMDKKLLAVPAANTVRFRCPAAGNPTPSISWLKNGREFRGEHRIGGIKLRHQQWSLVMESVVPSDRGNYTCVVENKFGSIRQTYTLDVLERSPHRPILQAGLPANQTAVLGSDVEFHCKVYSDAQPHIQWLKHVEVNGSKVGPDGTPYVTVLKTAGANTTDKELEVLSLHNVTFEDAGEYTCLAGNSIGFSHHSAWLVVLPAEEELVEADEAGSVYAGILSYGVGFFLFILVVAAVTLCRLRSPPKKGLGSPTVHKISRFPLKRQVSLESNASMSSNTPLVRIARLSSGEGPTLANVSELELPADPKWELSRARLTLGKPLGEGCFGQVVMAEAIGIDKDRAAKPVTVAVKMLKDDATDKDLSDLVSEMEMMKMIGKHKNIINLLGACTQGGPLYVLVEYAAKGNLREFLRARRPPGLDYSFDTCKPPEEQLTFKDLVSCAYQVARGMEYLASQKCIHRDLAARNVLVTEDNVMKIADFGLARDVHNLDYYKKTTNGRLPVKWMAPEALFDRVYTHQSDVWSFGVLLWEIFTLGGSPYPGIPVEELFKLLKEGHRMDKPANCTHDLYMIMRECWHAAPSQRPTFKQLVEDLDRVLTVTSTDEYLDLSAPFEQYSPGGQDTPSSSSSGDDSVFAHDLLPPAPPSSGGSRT
structure (smiles),measurement,setting,value
O=C1Nc2ccccc2/C1=C1\Nc2ccccc2\C1=N/O,residual activity,[1]; compound 1.0 µM,1%
same,residual activity,[1]; compound 10.0 µM,-2%
same,residual activity,[2]; compound 1.0 µM,79% and 77%
same,residual activity,[2]; compound 10.0 µM,45% and 67%
same,residual activity,[3]; compound 1.0 µM,63%
same,residual activity,[3]; compound 10.0 µM,70%
same,residual activity,[4]; compound 1.0 µM,93%
same,residual activity,[4]; compound 10.0 µM,83%
same,residual activity,[5]; compound 1.0 µM,81%
same,residual activity,[5]; compound 10.0 µM,55%
same,residual activity,[6]; compound 1.0 µM,109%
same,residual activity,[6]; compound 10.0 µM,98%
same,residual activity,[7]; compound 1.0 µM,81%
same,residual activity,[7]; compound 10.0 µM,37%
same,residual activity,[8]; compound 1.0 µM,85%
same,residual activity,[8]; compound 10.0 µM,80%
same,residual activity,[9]; compound 1.0 µM,73%
same,residual activity,[9]; compound 10.0 µM,18%
same,residual activity,[10]; compound 1.0 µM,101%
same,residual activity,[10]; compound 10.0 µM,78%
same,residual activity,[11]; compound 1.0 µM,78%
same,residual activity,[11]; compound 10.0 µM,53%
same,residual activity,[12]; compound 1.0 µM,4%
same,residual activity,[12]; compound 10.0 µM,7%
same,residual activity,[13]; compound 1.0 µM,21%
same,residual activity,[13]; compound 10.0 µM,2%
same,residual activity,[14]; compound 1.0 µM,104%
same,residual activity,[14]; compound 10.0 µM,72%
same,residual activity,[15]; compound 1.0 µM,6%
same,residual activity,[15]; compound 10.0 µM,-1%
same,residual activity,[16]; compound 1.0 µM,61%
same,residual activity,[16]; compound 10.0 µM,21%
same,residual activity,[17]; compound 1.0 µM,86%
same,residual activity,[17]; compound 10.0 µM,71%
same,residual activity,[18]; compound 1.0 µM,89%
same,residual activity,[18]; compound 10.0 µM,60%
same,residual activity,[19]; compound 1.0 µM,93%
same,residual activity,[19]; compound 10.0 µM,86%
same,residual activity,[20]; compound 1.0 µM,94%
same,residual activity,[20]; compound 10.0 µM,90%
same,residual activity,[21]; compound 1.0 µM,79%
same,residual activity,[21]; compound 10.0 µM,54%
same,residual activity,[22]; compound 1.0 µM,14%
same,residual activity,[22]; compound 10.0 µM,4%
same,residual activity,[23]; compound 1.0 µM,119%
same,residual activity,[23]; compound 10.0 µM,74%
same,residual activity,[24]; compound 1.0 µM,86%
same,residual activity,[24]; compound 10.0 µM,94%
same,residual activity,[25]; compound 1.0 µM,70%
same,residual activity,[25]; compound 10.0 µM,18%
same,residual activity,[26]; compound 1.0 µM,2%
same,residual activity,[26]; compound 10.0 µM,1%
same,residual activity,[27]; compound 1.0 µM,46%
same,residual activity,[27]; compound 10.0 µM,13%
same,residual activity,[28]; compound 1.0 µM,3%
same,residual activity,[28]; compound 10.0 µM,2%
same,residual activity,[29]; compound 1.0 µM,102%
same,residual activity,[29]; compound 10.0 µM,58%
same,residual activity,[30]; compound 1.0 µM,6%
same,residual activity,[30]; compound 10.0 µM,4%
same,residual activity,[31]; compound 1.0 µM,20%
same,residual activity,[31]; compound 10.0 µM,2%
same,residual activity,[32]; compound 1.0 µM,95%
same,residual activity,[32]; compound 10.0 µM,78%
same,residual activity,[33]; compound 1.0 µM,71%
same,residual activity,[33]; compound 10.0 µM,28%
